Source: patent publication US20220062300A1 (priority 2019, published 2022)

Experiments:
[1] = tested on: formalin-induced pain behavior; experiment: Formalin test (1% formalin, hind paw shakes) with isobologram analysis; type: in vivo; details: IM, rat; for dose giving maximal antinociception effect: both phases of the formalin test; for dose reaching a significant difference in % antinociception: phase 2 of the formalin test; for ED30 (dose delivering 30% of the maximal effect): single drug, 60 min before formalin, % antinociception
From the text: Male Wistar rats aged 7-8 weeks weighting 175-199 g were used in the experiments. Rats had free access to food and water before the experiments. All experimental procedures complied with the Guidelines on Ethical Standards for investigations of Experimental Pain in Animals (IASP, 1983). Each rat was used only once and was sacrificed in a CO2-saturated glass bell. The formalin model is used mainly with rodents. The test consists in the subcutaneous administration of formalin (formaldehyde in concentrations ranging from 1 to 5%), in a 20-25 μL volume for mice 30-100 μL for rats. The injection is usually administered in the dorsal surface of the right hind paw, and animals are sacrificed once the test is finished. The formalin test describes several behaviors, such as biting, licking and shaking the injected hind paw. Hind paw shaking is the most used parameter for quantifying the degree of pain. The formalin test in rodents is biphasic. […] The second phase (tonic or inflammatory) onsets 15-20 minutes after the injection and lasts 20-40 minutes. The 1%-formalin injection induced the typical shaking behavior, characterized by a brisk withdrawal or bending of the injected hind paw. The temporal course was assessed in this figure after the 1%-formalin injection, and the biphasic (phase 1 and 2) behavior characterizing this model was observed. An isobologram analysis was employed to assess aceclofenac and betamethasone interactions. […] When connecting the dots an additivity line is obtained, useful to establish the type of interaction of both compounds under study. Dose-response curves (DRC) are constructed to obtain the ED30's of each active principle. At least 4 doses of each active principle are administered by IM injection to at least 6 animals. […] Before the test, the drugs were diluted and mixed for intramuscular administration. […] This dose was statistically compared to the dose that theoretically is the simple addition of effects, and which can be obtained with the following formula: […] Where R is the potency ratio of drugs 1 and 2 administered alone; P1 is the proportion of drug 1 in the mixture; P2 is the proportion of drug 2 in the mixture. […] The interaction type is determined by the graph region where the experimental value is located in relation to the theoretical value. If the value lies below the additivity line and is statistically different from the theoretical value, then the interaction is synergic (an effect greater than the sum of effects of each drug); if the value lies near the additivity line and is not statistically different from the theoretical value, then the interaction is only additive (an effect equal to the sum of effects of each drug). If the value lies […] and is statistically different from the theoretical value, then the interaction is subadditive or antagonistic. A software calculates the interaction index (I.I.) of two drugs, obtained with the following formula: I.I.=Experimental ED30/theoretical ED30 If the index is less than 1.0, then the interaction is synergic; if it is equal to 1.0, the interaction is additive, and if it is greater than 1.0, the interaction is antagonistic. For twelve hours before the experimental preclinical phase, rats fasted but had free access to water. […] The results are expressed as the average±standard error (SE) of at least 6 rats per group. The number of hind paw shakes/minute was graphed vs. time. The area under the curve (AUC) of temporal courses is a global expression of the effect intensity and duration, and was calculated with the trapezoid method. The antinoception percentage (%) was calculated with the following formula: % Antinociception=((Vehicle-Compound)/Vehicle)×100. The AUC's and % antinociception were evaluated by means of an analysis of variance (ANOVA) and a Tukey's test. Results with P<0.05 were considered statistically significant.

[2] = cited from earlier work

Row | SMILES | dose giving maximal antinociception effect [1] | dose reaching a significant difference in % antinociception [1] | number of shakes in phase 2 of the formalin test, expressed as % antinociception [1] | ED30 (dose delivering 30% of the maximal effect) [1] | ED30 (dose delivering 30% of the maximal effect) ([1]; listed as aceclofenac) | ED30 (dose delivering 30% of the maximal effect) ([1]; listed as betamethasone) | solubility in water [2]
1 | O=C(O)COC(=O)Cc1ccccc1Nc1c(Cl)cccc1Cl [Aceclofenac, [(2-{2,6-dichlorophenyl)amino}phenylacetooxyacetic acid]] | 31.6 mg/kg | 17.7 mg/kg | decreased in a dose-dependent way | 1.8662 mg/kg | 13.472 mg/kg | – | –
2 | C[C@H]1C[C@H]2[C@@H]3CCC4=CC(=O)C=C[C@]4(C)[C@@]3(F)[C@@H](O)C[C@]2(C)[C@@]1(O)C(=O)CO [Betamethasone, (11β,16β)-9-Fluoro-11,17,21-trihydroxy-16-methylpregna-1,4-diene-3,20-dione] | 31.6 mg/kg | 17.7 mg/kg | decreased in a dose-dependent way | 13.4722 mg/kg | – | 13.472 mg/kg | insoluble in water
